In brackets after ≈: the same amount, converted by molar mass.
Tests used:
[1] = system: M. tuberculosis H37Ra; assay: microbe, parasite or virus in culture; type: cell-based, Mycobacterium tuberculosis; conditions: Mycobacterium tuberculosis, H37RA
[2] = in vitro; type: cell-based; conditions: human
Method: A549 human pulmonary epithelial cells (KCLB 10185), human embryonic kidney (HEK) 293 cells (KCLB 21573), human THP-1 leukemia cells (KCLB 40202), human neuroblastoma SH-SY5Y cells (KCLB 22266), Murine Raw 264.7 macrophages (KCLB 40071), and L929 murine fibroblasts (KCLB 10001) were purchased from the KCLB (Seoul, Korea). Cytotoxicity testing was performed using the MTT assay and the WST-1 cell viability assay as previously described.

[3] = system: M. abscessus; assay: microbe, parasite or virus in culture; type: cell-based, Mycobacterium abscessus; conditions: Mycobacteroides abscessus
[4] = system: M. arupense; assay: microbe, parasite or virus in culture; type: cell-based, Mycobacterium arupense; conditions: Mycolicibacter arupensis
[5] = system: M. aubagnense; assay: microbe, parasite or virus in culture; type: cell-based, Mycobacterium aubagnense; conditions: Mycolicibacterium aubagnense
[6] = system: M. colombiense; assay: microbe, parasite or virus in culture; type: cell-based; conditions: Mycobacterium colombiense
[7] = system: M. conceptionense; assay: microbe, parasite or virus in culture; type: cell-based, Mycobacterium conceptionense; conditions: Mycolicibacterium senegalense
[8] = system: M. gilvum; assay: microbe, parasite or virus in culture; type: cell-based, Mycobacterium gilvum; conditions: Mycolicibacterium gilvum
[9] = system: M. intracellulare; assay: microbe, parasite or virus in culture; type: cell-based; conditions: Mycobacterium intracellulare
[10] = system: M. kyorinense; assay: microbe, parasite or virus in culture; type: cell-based; conditions: Mycobacterium kyorinense
[11] = system: M. marinum; assay: microbe, parasite or virus in culture; type: cell-based; conditions: Mycobacterium marinum
[12] = system: M. marseiliense; assay: microbe, parasite or virus in culture; type: cell-based; conditions: Mycobacterium
[13] = system: M. neoaurum; assay: microbe, parasite or virus in culture; type: cell-based, Mycobacterium neoaurum; conditions: Mycolicibacterium neoaurum
[14] = system: M. peregrinum; assay: microbe, parasite or virus in culture; type: cell-based, Mycobacterium peregrinum; conditions: Mycolicibacterium peregrinum
[15] = system: M. phlei; assay: microbe, parasite or virus in culture; type: cell-based, Mycobacterium phlei; conditions: Mycolicibacterium phlei
[16] = system: M. smegmatis; assay: microbe, parasite or virus in culture; type: cell-based, Mycobacterium smegmatis; conditions: Mycolicibacterium smegmatis
[17] = system: M. szulgai; assay: microbe, parasite or virus in culture; type: cell-based; conditions: Mycobacterium szulgai
[18] = system: M. xenopi; assay: microbe, parasite or virus in culture; type: cell-based; conditions: Mycobacterium xenopi
[19] = system: intestinal microbiome; assay: Gut microbiome, 16s rRNA gene-based metagenomics analysis of feces; type: in vivo, BALB/c mice; conditions: mouse, in vivo
Method: Six-week-old BALB/c female mice were used for this study (6 mice for each group). Each drug was administered orally at 30 mg/kg once daily for 7 days. Stool was collected, and 16 rRNA gene-based metagenomics analysis was performed. Corn oil was used as the vehicle. The drug-free group received corn oil only. This animal experiment was conducted with the approval of the IACUC of the Soonchunhyang University (approval number: SCH21-0011). Microbiome analysis of collected feces was carried out as previously described with some modifications. Total DNA was extracted from the stool using the QIAamp DNA stool mini kit (Qiagen, Germany) after mechanical disruption using lysing matrix B tubes (MP Biomedicals, USA). V4 region of 16S RNA gene was amplified from extracted DNA with the following primers: forward primer ([…]) and reverse primer ([…]). PCR was performed using the Kappa HiFi hot start kit (KAPA Biosystems, USA) for 16s gene amplification and library preparation. A dsDNA HS assay kit and Qubit 4 fluorimeter (Invitrogen, USA) were used for DNA quantification. After each step, quality was checked using Agilent High Sensitivity DNA Kit and Agilent Bioanalyzer 2100 (Agilent Technologies, USA). Clean-up was performed using AMPure XP beads (Beckman Coulter, UK). The metagenomic library was prepared using a Nextera XT DNA Library Prep Kit (Illumina, USA) and loaded into an iSeq-100 reagent cartridge (Illumina, USA) together with a PhiX Control library (Illumina, USA). A 300-bp paired-end sequencing was performed on an iSeq-100 platform (Illumina, USA). Sequencing data were analyzed using the EzBioCloud server (Chunlab, Korea).

SMILES | CC50 ([2]; A549) | CC50 ([2]; HEK-293) | CC50 ([2]; SH-SY5Y) | CC50 ([2]; THP-1) | MIC [3] | MIC [4] | MIC [5] | MIC [6] | MIC [7] | MIC [8] | MIC [9] | MIC [10] | MIC [11] | MIC [12] | MIC [13] | MIC [14] | MIC [15] | MIC [16] | MIC [17] | MIC [18] | further results
COC(=O)[C@@H]1CCC(=O)N1Cc1cc2ccc(OCc3ccccc3)cc2c2cc(OC)c(OC)cc12 [PP3S, Methyl (S)-1-{[3-(Benzyloxy)-6,7-dimethoxy-9-phenanthryl]methyl}-5-oxopyrrolidine-2-carboxylate] | > 500 µg/mL | 7.8 µg/mL (≈ 15.6 µM) | 7.8 µg/mL (≈ 15.6 µM) | > 500 µg/mL | > 100 µg/mL | > 100 µg/mL | > 100 µg/mL | > 100 µg/mL | > 100 µg/mL | > 100 µg/mL | > 100 µg/mL | > 100 µg/mL | > 100 µg/mL | > 100 µg/mL | > 100 µg/mL | > 100 µg/mL | > 100 µg/mL | > 100 µg/mL | > 100 µg/mL | > 100 µg/mL | MIC [1]: 1.6 µg/mL (≈ 3.2 µM)
CO[C@H]1/C=C/O[C@@]2(C)Oc3c(C)c(O)c4c(O)c(c(/C=N/N5CCN(C)CC5)c(O)c4c3C2=O)NC(=O)/C(C)=C\C=C\[C@H](C)[C@H](O)[C@@H](C)[C@@H](O)[C@@H](C)[C@H](OC(C)=O)[C@@H]1C [RIF, rifampicin, reference compound] | > 500 µg/mL | > 500 µg/mL | > 500 µg/mL | > 500 µg/mL | > 100 µg/mL | 0.1 µg/mL (≈ 0.122 µM) | 1.6 µg/mL (≈ 1.94 µM) | 0.2 µg/mL (≈ 0.243 µM) | 25 µg/mL (≈ 30.4 µM) | 0.2 µg/mL (≈ 0.243 µM) | < 0.1 µg/mL | 50 µg/mL (≈ 60.8 µM) | < 0.1 µg/mL | > 100 µg/mL | 0.2 µg/mL (≈ 0.243 µM) | 25 µg/mL (≈ 30.4 µM) | 25 µg/mL (≈ 30.4 µM) | 25 µg/mL (≈ 30.4 µM) | < 0.1 µg/mL | 0.2 µg/mL (≈ 0.243 µM) | beta set-significance analysis, pair-wise comparison of gut microbiome [19]: significant; difference in phylum or class level taxa compared to drug-free group [19]: significant differences; phylogenetic diversity compared to drug-free control group [19]: significantly decreased
[H]/N=C(/N)N[C@H]1[C@H](O)[C@@H](O)[C@H](O[C@@H]2O[C@@H](C)[C@](O)(C=O)[C@H]2O[C@@H]2O[C@@H](CO)[C@H](O)[C@@H](O)[C@@H]2NC)[C@@H](N/C(N)=N\[H])[C@@H]1O [STR, streptomycin] |  |  |  |  | 25 µg/mL (≈ 43 µM) | 0.1 µg/mL (≈ 0.172 µM) | > 100 µg/mL | 0.8 µg/mL (≈ 1.38 µM) | 3.1 µg/mL (≈ 5.33 µM) | 0.2 µg/mL (≈ 0.344 µM) | 0.8 µg/mL (≈ 1.38 µM) | 0.8 µg/mL (≈ 1.38 µM) | < 0.1 µg/mL | 25 µg/mL (≈ 43 µM) | 0.8 µg/mL (≈ 1.38 µM) | 3.1 µg/mL (≈ 5.33 µM) | 0.2 µg/mL (≈ 0.344 µM) | 0.2 µg/mL (≈ 0.344 µM) | 0.2 µg/mL (≈ 0.344 µM) | 0.2 µg/mL (≈ 0.344 µM) | 

Source: paper PMC9154192 (PLoS Biology, 2022)
